The target of test [1] is E. coli DNA gyrase (Escherichia coli, UniProt P0AES6). The experiment in a line: DNA gyrase supercoiling plate assay. Type of test: biochemical. The conditions noted are these: for IC50: IC50 E. coli gyrase, supercoiling assay.
Test [2] deals with human DNA topoisomerase IIα (Homo sapiens, UniProt P11388). The experiment in a line: human DNA topoisomerase IIα inhibition. The settings on record: read-out: RA (residual activity) Human topo IIα. Type of test: biochemical.
Test [3] concerns the target E. coli topoisomerase IV (Escherichia coli, UniProt P20083). The experiment in a line: topoisomerase IV relaxation plate assay. Type of test: biochemical.
Test [4] concerns S. aureus ATCC 29213. The experiment in a line: MIC, broth microdilution. Type of test: cell-based, Staphylococcus aureus. The settings on record: Staphylococcus aureus, ATCC29213, read-out: MIC S. aureus ATCC 29213, broth microdilution. A general note: Dilution methods test growth across graded concentrations, often in twofold steps.

≈ marks a conversion by molar mass, not a printed value.

Chain of human DNA topoisomerase IIα (P11388 whole entry): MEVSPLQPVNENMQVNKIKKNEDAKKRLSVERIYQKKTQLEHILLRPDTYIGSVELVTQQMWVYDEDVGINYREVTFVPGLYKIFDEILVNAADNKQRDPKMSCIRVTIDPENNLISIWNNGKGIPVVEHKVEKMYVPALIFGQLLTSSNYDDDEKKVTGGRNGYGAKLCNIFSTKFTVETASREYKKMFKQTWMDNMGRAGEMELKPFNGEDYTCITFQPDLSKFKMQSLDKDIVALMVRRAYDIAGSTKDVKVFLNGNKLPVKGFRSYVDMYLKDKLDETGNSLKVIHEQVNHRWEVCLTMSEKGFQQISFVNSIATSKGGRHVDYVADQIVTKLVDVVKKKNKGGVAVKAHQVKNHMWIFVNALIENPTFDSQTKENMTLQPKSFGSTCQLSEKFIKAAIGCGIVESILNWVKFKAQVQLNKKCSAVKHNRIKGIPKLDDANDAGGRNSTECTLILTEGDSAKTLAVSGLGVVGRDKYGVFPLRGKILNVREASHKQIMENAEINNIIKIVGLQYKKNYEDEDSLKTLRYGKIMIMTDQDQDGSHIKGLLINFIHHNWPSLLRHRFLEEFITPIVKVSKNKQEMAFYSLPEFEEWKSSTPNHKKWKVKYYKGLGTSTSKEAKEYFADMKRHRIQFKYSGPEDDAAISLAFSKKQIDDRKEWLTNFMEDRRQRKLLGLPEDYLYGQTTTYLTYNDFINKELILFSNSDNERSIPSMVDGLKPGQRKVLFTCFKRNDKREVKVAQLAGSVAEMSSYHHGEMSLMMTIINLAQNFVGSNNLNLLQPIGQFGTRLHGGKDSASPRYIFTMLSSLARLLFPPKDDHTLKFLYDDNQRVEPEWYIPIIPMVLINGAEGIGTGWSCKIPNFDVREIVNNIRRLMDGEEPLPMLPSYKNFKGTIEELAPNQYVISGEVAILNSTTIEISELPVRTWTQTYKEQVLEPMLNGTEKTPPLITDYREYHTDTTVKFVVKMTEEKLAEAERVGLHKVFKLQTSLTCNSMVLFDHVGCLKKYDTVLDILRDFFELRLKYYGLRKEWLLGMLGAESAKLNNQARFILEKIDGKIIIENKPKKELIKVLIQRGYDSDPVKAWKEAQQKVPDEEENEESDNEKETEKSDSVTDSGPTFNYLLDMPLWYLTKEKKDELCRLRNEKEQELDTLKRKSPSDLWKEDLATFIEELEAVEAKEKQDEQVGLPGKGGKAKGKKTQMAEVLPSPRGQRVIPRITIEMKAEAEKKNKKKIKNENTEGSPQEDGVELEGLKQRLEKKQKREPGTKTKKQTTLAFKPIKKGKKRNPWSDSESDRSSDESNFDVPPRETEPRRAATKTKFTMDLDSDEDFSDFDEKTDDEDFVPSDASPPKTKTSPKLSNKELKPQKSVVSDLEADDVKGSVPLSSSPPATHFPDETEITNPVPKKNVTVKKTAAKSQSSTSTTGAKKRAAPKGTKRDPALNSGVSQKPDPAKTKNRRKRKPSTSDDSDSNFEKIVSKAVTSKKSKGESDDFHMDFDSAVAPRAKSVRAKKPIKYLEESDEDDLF
Chain of E. coli topoisomerase IV (P20083 whole entry): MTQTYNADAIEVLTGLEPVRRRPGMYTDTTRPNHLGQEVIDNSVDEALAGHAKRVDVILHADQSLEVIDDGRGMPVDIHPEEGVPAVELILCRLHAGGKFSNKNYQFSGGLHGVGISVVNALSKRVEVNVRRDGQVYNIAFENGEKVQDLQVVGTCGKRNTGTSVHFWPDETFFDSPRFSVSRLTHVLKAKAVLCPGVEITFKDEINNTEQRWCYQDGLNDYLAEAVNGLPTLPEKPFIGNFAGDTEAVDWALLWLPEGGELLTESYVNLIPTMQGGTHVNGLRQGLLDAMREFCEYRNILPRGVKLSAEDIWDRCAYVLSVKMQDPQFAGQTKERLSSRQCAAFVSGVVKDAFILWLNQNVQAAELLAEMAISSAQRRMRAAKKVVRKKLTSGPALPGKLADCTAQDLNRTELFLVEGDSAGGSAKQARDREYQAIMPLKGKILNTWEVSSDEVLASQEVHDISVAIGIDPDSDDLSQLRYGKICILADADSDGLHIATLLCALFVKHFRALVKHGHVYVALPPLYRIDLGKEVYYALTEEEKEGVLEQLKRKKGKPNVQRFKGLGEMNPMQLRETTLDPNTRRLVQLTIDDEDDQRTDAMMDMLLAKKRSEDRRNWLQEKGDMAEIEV
Chain of E. coli topoisomerase IV (P0AFI2 whole entry partner): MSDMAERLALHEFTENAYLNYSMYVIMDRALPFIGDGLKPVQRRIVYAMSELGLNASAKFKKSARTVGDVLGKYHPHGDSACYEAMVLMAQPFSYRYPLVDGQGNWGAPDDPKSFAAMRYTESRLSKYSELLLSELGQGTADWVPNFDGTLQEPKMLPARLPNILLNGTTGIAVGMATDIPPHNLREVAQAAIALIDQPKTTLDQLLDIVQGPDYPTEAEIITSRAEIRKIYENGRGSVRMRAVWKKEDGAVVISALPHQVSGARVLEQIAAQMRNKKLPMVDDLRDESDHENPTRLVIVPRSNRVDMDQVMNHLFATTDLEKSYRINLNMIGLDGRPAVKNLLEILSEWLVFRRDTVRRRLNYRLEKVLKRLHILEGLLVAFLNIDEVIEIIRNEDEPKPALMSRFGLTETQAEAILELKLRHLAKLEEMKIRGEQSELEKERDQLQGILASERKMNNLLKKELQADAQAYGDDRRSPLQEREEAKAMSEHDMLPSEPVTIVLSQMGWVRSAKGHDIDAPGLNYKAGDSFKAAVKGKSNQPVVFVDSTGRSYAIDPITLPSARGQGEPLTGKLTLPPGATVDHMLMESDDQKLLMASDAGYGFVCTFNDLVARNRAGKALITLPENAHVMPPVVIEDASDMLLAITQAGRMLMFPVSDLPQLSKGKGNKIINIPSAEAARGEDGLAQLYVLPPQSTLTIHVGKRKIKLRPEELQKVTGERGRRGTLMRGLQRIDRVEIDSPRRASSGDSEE

In general, IC50 refers to the concentration needed to halve the response being measured. The low end stands for greater potency in that assay, the high end for weaker potency in that assay. In turn, `CC(C)(C)OC(=O)N1CCN(c2cc(C(=O)NCC(=O)O)ccc2NC(=O)c2cc(Br)c(Br)[nH]2)CC1` [Compound 9a, (3-(4-(tert-Butoxycarbonyl)piperazin-1-yl)-4-(4,5-dibromo-1H-pyrrole-2-carboxamido)benzoyl)glycine] showed an IC50 in test [1] of 362 nM. On the same count and under the same terms, the same measure for `Cc1[nH]c(C(=O)Nc2ccc(C(=O)NCC(=O)O)cc2N2CC[C@@H](NC(=O)OC(C)(C)C)C2)c(Cl)c1Cl` [Compound 8c, (R)-(3-(3-((tert-Butoxycarbonyl)amino)pyrrolidin-1-yl)-4-(3,4-dichloro-5-methyl-1H-pyrrole-2-carboxamido)benzoyl)glycine]: 162 nM; for `CC(C)(C)OC(=O)N[C@H]1CCN(c2cc(C(=O)NCC(=O)O)ccc2NC(=O)c2cc(Br)c(Br)[nH]2)C1` [Compound 9b, (S)-(3-(3-((tert-Butoxycarbonyl)amino)pyrrolidin-1-yl)-4-(4,5-dibromo-1H-pyrrole-2-carboxamido)benzoyl)glycine]: 4110 nM.

In the case of `Cc1[nH]c(C(=O)Nc2ccc(-c3n[nH]c(=O)o3)cc2N2CC(C)OC(C)C2)c(Cl)c1Cl` (centres unmarked) [Compound 22g, 3,4-Dichloro-N-(2-(2,6-dimethylmorpholino)-4-(5-oxo-4,5-dihydro-1,3,4-oxadiazol-2-yl)phenyl)-5-methyl-1H-pyrrole-2-carboxamide], in test [2], the remaining activity at 100 µM was 97%. With “4,5-Dibromo-N-(2-morpholino-4-(5-oxo-4,5-dihydro-1,3,4-oxadiazol-2-yl)phenyl)-1H-pyrrole-2-carboxamide [Compound 27a]”, the “RA (residual activity) E. coli gyrase” value in test [1] (at 10 μM compound) is on record as 98% (10 μM). In test [3] (at 1 μM compound), the “RA (residual activity) E. coli topo IV” value is reported as 103% (1 μM). As for `N[C@@H]1CCN(c2cc(C(=O)NCC(=O)O)ccc2NC(=O)c2cc(Br)c(Br)[nH]2)C1` [Compound 11c, (R)-1-(5-((Carboxymethyl)carbamoyl)-2-(4,5-dibromo-1H-pyrrole-2-carboxamido)phenyl)pyrrolidin-3-aminium chloride], the midpoint of inhibition in test [1], the IC50, lay at 996 nM. Moreover, the remaining activity at 10 µM in test [3] (read-out: RA (residual activity) E. coli topo IV) stood at 75%.

In test [1], `Cc1[nH]c(C(=O)Nc2ccc(C(=O)NCC(=O)O)cc2N2CC[C@H](NC(=O)OC(C)(C)C)C2)c(Cl)c1Cl` [Compound 8b, (S)-(3-(3-((tert-Butoxycarbonyl)amino)pyrrolidin-1-yl)-4-(3,4-dichloro-5-methyl-1H-pyrrole-2-carboxamido)benzoyl)glycine] gave an IC50 of 196 nM. The term MIC denotes the lowest concentration found to suppress growth. Compound `Cc1[nH]c(C(=O)Nc2ccc(C(=O)NCc3n[nH]c(=O)o3)cc2N2CCN(C(=O)OC(C)(C)C)CC2)c(Cl)c1Cl` [Compound 13, tert-Butyl 4-(2-(3,4-dichloro-5-methyl-1H-pyrrole-2-carboxamido)-5-(((5-oxo-4,5-dihydro-1,3,4-oxadiazol-2-yl)methyl)carbamoyl)phenyl)piperazine-1-carboxylate] returned a concentration for half-maximal inhibition (IC50) in test [1] of 483 nM. For the same compound, the MIC in test [4] worked out at 1 µg/mL (≈ 1.68 µM). `N[C@H]1CCN(c2cc(C(=O)NCC(=O)O)ccc2NC(=O)c2cc(Br)c(Br)[nH]2)C1` [Compound 11b, (S)-1-(5-((Carboxymethyl)carbamoyl)-2-(4,5-dibromo-1H-pyrrole-2-carboxamido)phenyl)pyrrolidin-3-aminium chloride] came in with an IC50 in test [1] of 235 nM. Turning to `O=C(O)CNC(=O)c1ccc(NC(=O)c2cc(Br)c(Br)[nH]2)c(N2CCNCC2)c1` [Compound 11a, 4-(5-((Carboxymethyl)carbamoyl)-2-(4,5-dibromo-1H-pyrrole-2-carboxamido)phenyl)piperazin-1-ium chloride], in test [2], the remaining activity at 40 µM is 100%.

As for `CC(C)(C)OC(=O)N[C@@H]1CCN(c2cc(C(=O)NCC(=O)O)ccc2NC(=O)c2cc(Br)c(Br)[nH]2)C1` [Compound 9c, (R)-(3-(3-((tert-Butoxycarbonyl)amino)pyrrolidin-1-yl)-4-(4,5-dibromo-1H-pyrrole-2-carboxamido)benzoyl)glycine], the midpoint of inhibition in test [1], the IC50, lay at 5390 nM.

For the origin of these results see paper PMC11378028 (RSC Advances, 2024).
